From patent US20040121460A1, “Differentiation of stem cells to pancreatic endocrine cells” (priority 2003, published 2004) come the findings set out here.

Entries after “also recorded” stand apart in the source; their conditions may differ.

Assay [1] relates to ES cell-derived insulin-secreting islet clusters. Description: Insulin secretion from ES cell-derived islet clusters, insulin ELISA. Type of assay: cell-based, murine. The following applies: for insulin secretion in response to agonists (secretagogues): in the presence of low concentration (5 mM) of glucose. Here is the method: A series of experiments were conducted to measure the kinetics and pharmacology of glucose-dependent insulin release. Insulin secretion was measured in Krebs-Ringer-bicarbonate buffer containing 120 mM NaCl, 5 mM KCl, 2.5 mM CaCl2, 1.1 mM MgCl2, 25 mM NaHCO3 and 0.1% bovine serum albumin at 37° C. Inhibitors of insulin secretion (nifedipine and diazoxide) were added to buffer during preincubation (30 min) and throughout the incubation period. For determination of total cellular insulin content, insulin was extracted from cells with acid ethanol (10% glacial acetic acid in absolute ethanol) overnight at 4° C., followed by cell sonication. Total cellular and secreted insulin was assayed using insulin ELISA kit (ALPCO, Windham, N.H.). Protein concentrations were determined using DC protein assay system (Bio-Rad, Hercules, Calif.).
To determine if the islet clusters utilize physiological glucose-mediated signaling pathways, the effect of several well-characterized agonists and antagonists of insulin secretion were examined. The mechanism by which glucose stimulates insulin secretion in vivo is complex. As outlined in FIG. 3B, transport of glucose into the cell, and its metabolism results in ATP production, an event which, in turn, leads to inhibition of ATP-dependent K^+ channels, cell membrane depolarization, opening of the voltage-dependent Ca^++ channels, and influx of extracellular Ca^++ into the cell. Additionally, intracellular Ca^++ can be elevated by release of Ca^++ from intracellular stores through other mechanisms. Elevation of free intracellular Ca^++ is coupled to multiple phosphorylation events modulated by protein kinase C (PKC) and protein kinase A (PKA) cascades, which ultimately lead to release of insulin from the cell (McClenaghan et al., J Mol. Med., 77:235, 1999).
On the technique in general: An ELISA detects its analyte on a solid surface through an enzyme-linked reagent.

Assay [2] has as its system ES cell cultures. Description: LIF treatment of ES cell cultures at stage 2 (EB formation), immunostaining for EN-1, PDX-1, TuJ1, GFAP. Type of assay: cell-based. Here is the method:
FIG. 5 is a set of panels showing the neural and pancreatic differentiation of ES cells. FIG. 1A is a set of digital images showing the cells during the procedure for induction of midbrain dopaminergic neurons from ES cells as previous described (see WO 01/83715, herein incorporated by reference). Briefly, the ES cells were taken through 5 steps or stages. In stage 1 undifferentiated ES cells were cultured for 5 days in the presence of 15% fetal calf serum (FCS) on gelatin coated tissue culture dishes in the presence of LIF (1,400 U/ml). In stage 2 embryoid bodies (Ebs) were generated in the presence of FCS for 4 days in the presence or absence of LIF (1,000 U/ml.). In stage 3, the EBs were plated into ITSFn medium (Okabe et al., Mech. Dev. 59: 89-102, 1996) where over 10 days Nestin+ cells migrated from the cell aggregates. In stage 4 these Nestin+ cells were resuspended and expanded for 4 days in N2 medium containing bFGF, sonic hedgehog (Shh) and fibroblast growth factor-8 (FGF8). In stage 5 the medium was changed into N2 medium without bFGF, Shh or FGF8. These cells differentiated efficiently into neurons and astrocytes over a two week period. Embryoid bodies were generated in the presence (LIF+) or absence (LIF−) of LIF (1000 U/ml) and differentiated. Double-immunostaining for TuJ1/GFAP (upper panels, day 8 in stage 5) and PDX-1/En-1 (lower panels, day 3 in stage 4). LIF treatment in stage 2 (EB formation) increases the neuronal (TuJ1+cells, light grey) and decreases the astrocytic (GFAP+, dark grey) population. […] FIG. 5C is a bar graph showing that the yield of En-1+ and PDX-1+ cells is expressed as a percentage of total cells at stage 4.
The methods disclosed herein include five stages: (1) expansion of ES cells (2) generation of EB (3) selection for CNS precursor cells (4) expansion of pancreatic (versus central nervous system (CNS)) precursor cells, and (5) differentiation of pancreatic endocrine cells (versus differentiation of neuronal cells). Expansion of ES cells and generation of EB was performed as disclosed herein. EB were cultured in DMEM/15% serum (ES medium) with LIF (1000 units (U)/ml) for 4 days with changing medium every 2 day. After 4 days, EBs were transferred to a tissue culture dish cultured in ITS medium containing fibronectin for 10-12 days. EBs which were kept in absence of LIF in stage II were phenotypically different than EB cultured in the presence of LIF in stage II. In stage 1V, ES-derived CNS precursor were cultured in N2 medium in the presence of bFGF (20 ng/ml) and Shh (500 ng/ml) and FGF8 (100 ng/ml) for 4 days and after withdrawal of bFGF/SHH/FGF8, differentiated them for 10-12 day in N2 medium with ascorbic acid. Specifically, EB cultured in the absence of LIF were spread out in stage III. EBs which were treated with LIF maintained a round shape and CNS precursor cells migrated from attaching point of EB in dishes. Therefore, a selection for CNS precursor was accomplished by culturing in the […] of LIF.

Where [3] appears, read: at stage 4, LIF at stage 2 (EB formation).

Regarding `CC(C)Cn1c(=O)n(C)c(=O)c2[nH]cnc21` [IBMX, 3-isobutil-1-methylxanthine], in assay [1], the “insulin secretion in response to agonists (secretagogues)” value (from here on “insulin secretion in response”) is listed as “stimulated insulin secretion”.

In the case of `C[N+](C)(C)CCOC(N)=O` [carbachol], the “insulin secretion in response” value in assay [1] was “stimulated insulin secretion”.

For `CC1=NS(=O)(=O)c2cc(Cl)ccc2N1` [diazoxide], the “insulin secretion in the presence of antagonists (inhibitors)” value in assay [1] (in the presence of high glucose concentrations (20 mM)) is given as “inhibited insulin secretion”.

For `CCCCNC(=O)NS(=O)(=O)c1ccc(C)cc1` [tolbutamide], the “insulin secretion in response” value in assay [1] is “stimulated insulin secretion”.

Consider “LIF: growth factor that prevents differentiation of ES cells; glycosylated 58 kDa protein of 179 amino acids”, for which, in assay [2] (setting [3]), the “PDX-1 positive cells / pancreatic precursor cells” value is reported as “negatively regulates; also recorded: Only few” and the “expression of EN-1 / midbrain precursor cells (En-1+ cells)” value is “efficiently enhances; also recorded: increases”. Also, in assay [2] (at stage 4, LIF present at stage 2), the “EN-1 positive cells, share of total ES cell-derived cell population” value is “up to 80%”. Moreover, the “yield of neurons / neuronal (TuJ1+) population” value in assay [2] (at stage 5, LIF at stage 2 (EB formation)) is recorded as “increased”. Also, in assay [2] (day 8 in stage 5, LIF at stage 2 (EB formation)), the “astrocytic (GFAP+) population” value is recorded as “decreases”.
